Reference: PubChem BioAssay AID330 (DTP/NCI, 2004)
“And” between values parts separate entries of the source, which are not always exact repeats. Identical values can stand only once. Toxic doses and inconclusive results are not listed.

Test system: P388 leukemia ip, CD2F1 mice, survival T/C
Assay: NCI In Vivo Anticancer Drug Screen. Data for tumor model P388 Leukemia (intraperitoneal) in CD2F1 (CDF1) mice
Conditions: endpoint: median survival time, higher = longer survival
Summary of the method: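 Mice carrying the transplanted tumor received test compound or vehicle. Survival was recorded in each group, and the value is the treated-group measurement divided by that of the vehicle-treated control group.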

[1] = dose: 50.0 mg/kg/injection, schedule: Q01DX009 (ip), vehicle: saline with Tween-80
[2] = dose: 100.0 mg/kg/injection, schedule: Q01DX009 (ip), vehicle: saline with Tween-80
[3] = dose: 200.0 mg/kg/injection, schedule: Q01DX009 (ip), vehicle: saline with Tween-80
[4] = dose: 0.39 mg/kg/injection, schedule: Q01DX009 (ip), vehicle: water
[5] = dose: 0.78 mg/kg/injection, schedule: Q01DX009 (ip), vehicle: water
[6] = dose: 1.56 mg/kg/injection, schedule: Q01DX009 (ip), vehicle: water
[7] = dose: 3.13 mg/kg/injection, schedule: Q01DX009 (ip), vehicle: water
[8] = dose: 50.0 mg/kg/injection, schedule: Q01DX005 (ip), vehicle: Klucel (hydroxypropylcellulose) (HPC)
[9] = dose: 50.0 mg/kg/injection, schedule: Q01DX005 (ip), vehicle: saline
[10] = dose: 100.0 mg/kg/injection, schedule: Q01DX005 (ip), vehicle: saline
[11] = dose: 100.0 mg/kg/injection, schedule: Q01DX005 (ip), vehicle: Klucel (hydroxypropylcellulose) (HPC)

SMILES: NC(N)=O.NC(N)=O.NC(N)=O.NC(N)=O.NC(N)=O.NC(N)=O.[Fe+3].[O-][Cl+3]([O-])([O-])O
- T/C [1]: 96 % of control
- T/C [2]: 91 % of control
- T/C [3]: 102 % of control

SMILES: COc1cccc2c1C(=O)c1c(O)c3c(c(O)c1C2=O)C[C@@](O)(CCO)C[C@@H]3OC1CC(N)C(O)C(C)O1 (some centres not stated)
- T/C [4]: 151 % of control
- T/C [5]: 158 % of control and 164 % of control
- T/C (dose: 1.2 mg/kg/injection, schedule: Q04DX003 (ip), vehicle: water): 119 % of control
- T/C [6]: 153 % of control and 158 % of control
- T/C (dose: 2.4 mg/kg/injection, schedule: Q04DX003 (ip), vehicle: water): 106 % of control and 112 % of control
- T/C [7]: 163 % of control and 164 % of control
- T/C (dose: 4.7 mg/kg/injection, schedule: Q04DX003 (ip), vehicle: water): 120 % of control
- T/C (dose: 6.25 mg/kg/injection, schedule: Q01DX009 (ip), vehicle: water): 153 % of control
- T/C (dose: 9.4 mg/kg/injection, schedule: Q04DX003 (ip), vehicle: water): 154 % of control
- T/C (dose: 18.8 mg/kg/injection, schedule: Q04DX003 (ip), vehicle: water): 158 % of control
- T/C (dose: 75.0 mg/kg/injection, schedule: Q04DX003 (ip), vehicle: water): 97 % of control

SMILES: O[C@H]1CCN2CO[C@@H](c3ccccc3)C[C@H]2C1
- T/C (dose: 12.5 mg/kg/injection, schedule: Q01DX005 (ip), vehicle: Klucel (hydroxypropylcellulose) (HPC)): 102 % of control
- T/C (dose: 25.0 mg/kg/injection, schedule: Q01DX005 (ip), vehicle: Klucel (hydroxypropylcellulose) (HPC)): 103 % of control
- T/C [8]: 102 % of control

SMILES: CCOC(=O)C(C)(OCC)OCC
- T/C (dose: 25.0 mg/kg/injection, schedule: Q01DX009 (ip), vehicle: saline with Tween-80): 101 % of control
- T/C [1]: 98 % of control
- T/C [2]: 98 % of control
- T/C [3]: 98 % of control
- T/C (dose: 400.0 mg/kg/injection, schedule: Q01DX009 (ip), vehicle: saline with Tween-80): 100 % of control

SMILES: CC1=CC(=C2C(=O)c3ccccc3C2=O)C=C(C)N1CCN1CCCCC1
- T/C [9]: 98 % of control
- T/C (dose: 60.0 mg/kg/injection, schedule: Q01DX005 (ip), vehicle: Klucel (hydroxypropylcellulose) (HPC)): 90 % of control
- T/C [10]: 99 % of control
- T/C (dose: 120.0 mg/kg/injection, schedule: Q01DX005 (ip), vehicle: Klucel (hydroxypropylcellulose) (HPC)): 95 % of control

SMILES: CC(C)(C)OC(=O)NCCCCC(NC(=O)OCC1c2ccccc2-c2ccccc21)C(=O)O (configuration not stated)
- T/C [8]: 109 % of control
- T/C [11]: 93 % of control

SMILES: CN1CCCC1c1ccc[n+](C)c1 (configuration not stated)
- T/C (dose: 50.0 mg/kg/injection, schedule: Q01DX009 (ip), vehicle: saline): 110 % of control and 108 % of control
- T/C (dose: 100.0 mg/kg/injection, schedule: Q01DX009 (ip), vehicle: saline): 110 % of control and 105 % of control
- T/C (dose: 200.0 mg/kg/injection, schedule: Q01DX009 (ip), vehicle: saline): 115 % of control and 113 % of control

SMILES: OC1c2ccccc2-c2nc3ccccc3cc21 (configuration not stated)
- T/C [8]: 110 % of control and 92 % of control
- T/C [11]: 102 % of control and 86 % of control
- T/C (dose: 200.0 mg/kg/injection, schedule: Q01DX005 (ip), vehicle: Klucel (hydroxypropylcellulose) (HPC)): 107 % of control

SMILES: COc1cccc2c1C(=O)c1c(O)c3c(c(O)c1C2=O)CC(O)(/C(C)=N/NC(=O)CCCC(=O)N/N=C(\C)C1(O)Cc2c(O)c4c(c(O)c2C(OC2CC(N)C(O)C(C)O2)C1)C(=O)c1c(OC)cccc1C4=O)CC3OC1CC(N)C(O)C(C)O1 (configuration not stated)
- T/C (dose: 0.2 mg/kg/injection, schedule: Q01DX009 (ip), vehicle: water): 105 % of control
- T/C [4]: 90 % of control
- T/C [5]: 150 % of control
- T/C [6]: 188 % of control
- T/C [7]: 167 % of control

SMILES: NNC(=O)C(N)Cc1ccc(O)cc1 (configuration not stated)
- T/C [9]: 100 % of control
- T/C [10]: 103 % of control
- T/C (dose: 200.0 mg/kg/injection, schedule: Q01DX005 (ip), vehicle: saline): 115 % of control
